Reference: patent US12461089B2, “Olfactory receptor involved in the perception of musk fragrance and the use thereof” (ChemoSensoryX Biosciences SA, priority 2017, dated 2025)

Key:
Assay type in all cases: cell-based
OR5AN1 = biological target: T1, OR5AN1 (Homo sapiens, UniProt Q8NGI8, E89G); assay: Luciferase reporter concentration-response analysis on OR5AN1; details: CRE-luciferase; empty vector pEFIBRHO as control
T1 construct: expressed in transfected cells; host or cells: HEK293T-RTP1A1/RTP2
T1 sequence (Q8NGI8 1-311 E89G): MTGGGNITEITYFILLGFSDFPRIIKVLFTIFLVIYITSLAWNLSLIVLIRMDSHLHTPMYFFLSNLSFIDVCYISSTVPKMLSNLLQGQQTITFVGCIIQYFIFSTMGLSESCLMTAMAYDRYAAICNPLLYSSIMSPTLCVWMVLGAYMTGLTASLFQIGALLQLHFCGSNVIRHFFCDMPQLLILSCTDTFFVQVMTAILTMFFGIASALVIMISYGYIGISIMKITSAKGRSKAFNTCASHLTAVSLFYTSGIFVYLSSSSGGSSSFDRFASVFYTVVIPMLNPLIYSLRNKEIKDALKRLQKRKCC
Description: (§1) HEK293T-RTP1A1/RTP2 cells were maintained in minimal essential medium (EMEM, Lonza) containing 10% fetal bovine serum (M10). These cells were generated by transfecting HEK293T with an expression vector containing the sequences of the chaperone proteins RTP1A1 and RTP2 and a resistance gene to puromycin, using Lipofectamine 2000. The recombinant cell population, used in these experiments, was selected by adding 10 μg/ml of puromycin into the culture medium and subsequently subcloned (WO 2014/191047 A1).
(§2) Odorant molecules were diluted at a concentration of 1 mole/liter (M) into dimethyl sulfoxide (DMSO) to generate stock solutions.
(§3) For concentration-response analysis, serial dilutions of the tested molecules were prepared from stock solutions in EMEM plated into 96-well plates.
(§4) For the initial deorphanisation screening and dose-response analysis, a Luciferase-based gene reporter assay (Promega, Leiden, The Nederlands) was used. Briefly, cells were platted on Poly-D-lysine-coated 96-well and transfected with a plasmid containing the CRE-luciferase and a plasmid containing the olfactory receptor. Sixteen hours after transfection, the culture medium was replaced by serum-free EMEM containing the tested compounds at a determined concentration. After four hours of incubation at 37° C. degree, cells were lysed and processed for luminescence measurement. Luminescene emission was recorded. Results were expressed as luciferase activity (Relative […] Unit (RLU)) or as percentage of the response induced by 10 μM of the adenylate cyclase activator Forskolin. An empty plasmid is used as negative control.
In these analyses we also included ORs previously described as musk-specific receptors OR5AN1 (SEQ ID n° 7) (WO 2015/020158 A1, Shirasu et al. 2014 Neuron 81, 165-78, Sato-Akuhara N et al. 2016 J Neurosci. 36(16), 4482-91) and OR11A1 (SEQ ID n° 8) (WO 2016/201152 A1). […] Therefore, OR5A1 was included in the analyses. 35 musk compounds from the four structurally different chemical groups previously described were tested in concentration-response analyses (Table 2). In each experiment, an empty vector was used as negative control (pEFIBRHO). […] Full results including the calculated EC50 are given in Table 2; “non active” represent negative experiments, no activation after testing. […]

OR11A1 = biological target: T2, OR11A1 (Homo sapiens, UniProt Q9GZK7); assay: Luciferase reporter concentration-response analysis on OR11A1; details: CRE-luciferase; empty vector pEFIBRHO as control
T2 construct: expressed in transfected cells; host or cells: HEK293T-RTP1A1/RTP2
T2 sequence (Q9GZK7 1-315): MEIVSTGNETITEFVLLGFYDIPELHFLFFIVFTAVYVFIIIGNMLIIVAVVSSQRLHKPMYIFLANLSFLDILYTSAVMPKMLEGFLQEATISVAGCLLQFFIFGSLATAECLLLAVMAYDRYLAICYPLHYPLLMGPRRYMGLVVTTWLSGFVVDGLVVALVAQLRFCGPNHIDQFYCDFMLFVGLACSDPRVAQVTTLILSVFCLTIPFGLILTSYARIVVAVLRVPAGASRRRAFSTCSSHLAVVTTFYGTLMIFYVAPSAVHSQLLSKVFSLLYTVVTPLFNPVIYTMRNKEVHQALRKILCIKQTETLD
Description: (§5) HEK293T-RTP1A1/RTP2 cells were maintained in minimal essential medium (EMEM, Lonza) containing 10% fetal bovine serum (M10). These cells were generated by transfecting HEK293T with an expression vector containing the sequences of the chaperone proteins RTP1A1 and RTP2 and a resistance gene to puromycin, using Lipofectamine 2000.
as §2, §3, §4
(§6) 35 musk compounds from the four structurally different chemical groups previously described were tested in concentration-response analyses (Table 2). In each experiment, an empty vector was used as negative control (pEFIBRHO). […] Full results including the calculated EC50 are given in Table 2; “non active” represent negative experiments, no activation after testing.
These compounds were tested in concentration-response analysis in luciferase assays, as described previously. In each experiment, an empty vector was used as negative control (pEFIBRHO).

OR5A1 = biological target: T3, OR5A1 (Homo sapiens, UniProt Q8NGJ0); assay: Luciferase reporter concentration-response analysis on OR5A1; details: CRE-luciferase; empty vector pEFIBRHO as control
T3 construct: expressed in transfected cells; host or cells: HEK293T-RTP1A1/RTP2
T3 sequence (Q8NGJ0 1-315): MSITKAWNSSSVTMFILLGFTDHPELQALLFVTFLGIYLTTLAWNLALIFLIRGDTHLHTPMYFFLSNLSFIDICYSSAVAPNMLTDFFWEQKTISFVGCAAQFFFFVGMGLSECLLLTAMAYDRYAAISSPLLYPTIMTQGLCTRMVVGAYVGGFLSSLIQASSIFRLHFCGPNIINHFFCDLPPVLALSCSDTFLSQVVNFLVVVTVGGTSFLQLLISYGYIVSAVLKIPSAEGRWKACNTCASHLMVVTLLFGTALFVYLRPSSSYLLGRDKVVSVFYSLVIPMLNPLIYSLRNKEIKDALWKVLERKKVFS
Description: as §1, §2, §3
as §4, with “Briefly, cells were platted on Poly-D-lysine-coated 96-well and transfected with a plasmid containing the CRE-luciferase and a plasmid containing the olfactory receptor.” left out, “An empty plasmid is used as negative control.” left out

OR5A2_variant 1 = biological target: T4, OR5A2_variant 1 (Homo sapiens, UniProt Q8NGI9); assay: Luciferase reporter concentration-response analysis on OR5A2_variant 1; details: CRE-luciferase; semi-logarithmic serial dilutions; empty vector pEFIBRHO as control
T4 construct: expressed in transfected cells; host or cells: HEK293T-RTP1A1/RTP2
T4 sequence (Q8NGI9 1-324): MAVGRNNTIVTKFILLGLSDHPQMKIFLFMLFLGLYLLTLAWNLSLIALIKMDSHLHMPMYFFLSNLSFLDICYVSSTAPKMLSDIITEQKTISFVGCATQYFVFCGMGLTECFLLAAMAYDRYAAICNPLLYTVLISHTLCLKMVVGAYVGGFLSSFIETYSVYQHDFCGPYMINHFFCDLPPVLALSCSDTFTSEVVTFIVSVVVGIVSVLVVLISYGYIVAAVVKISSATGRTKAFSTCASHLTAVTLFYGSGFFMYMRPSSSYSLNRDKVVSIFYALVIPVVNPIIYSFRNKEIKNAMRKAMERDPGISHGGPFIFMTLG
Description: as §5, §2, §3, §4, §6

chimeric OR5A2_variant 1 = biological target: T5, chimeric OR5A2_variant 1 (Homo sapiens, UniProt Q8NGI9, F293L/H55R/I289L/M58T); assay: Luciferase reporter concentration-response analysis on chimeric OR5A2_variant 1; details: CRE-luciferase, empty vector pEFIBRHO as control
T5 construct: expressed in transfected cells; host or cells: HEK293T-RTP1A1/RTP2
T5 sequence (Q8NGI9 with tags, fused parts or gaps H55R/M58T/I289L/F293L): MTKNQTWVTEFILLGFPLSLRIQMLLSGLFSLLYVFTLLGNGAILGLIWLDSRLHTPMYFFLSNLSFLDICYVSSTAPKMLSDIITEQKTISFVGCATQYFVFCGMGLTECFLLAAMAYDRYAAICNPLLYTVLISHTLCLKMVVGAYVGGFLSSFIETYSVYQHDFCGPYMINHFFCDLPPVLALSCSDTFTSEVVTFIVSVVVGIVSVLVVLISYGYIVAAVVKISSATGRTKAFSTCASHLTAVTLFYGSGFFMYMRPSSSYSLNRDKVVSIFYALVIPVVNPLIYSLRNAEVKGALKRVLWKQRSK
Description: as §5, §2, §3, §4
To test if the amino acids substitution could impact the musk sensitivity, and specificity and to validate the Krautwurst's model, luciferase assays were performed as described previously after transfection of the chimeric OR5A2_variant 1. Cells were treated with semi-logarithmic serial dilutions of musk compounds from the four structurally different groups described earlier.
In each experiment, an empty vector was used as negative control (pEFIBRHO).

Compound | activation of OR5AN1, concentration-response (OR5AN1) | activation of OR11A1, concentration-response (OR11A1) | activation of OR5A1, concentration-response (OR5A1) | activation of OR5A2 (OR5A2_variant 1), concentration-response (OR5A2_variant 1) | activation of chimeric OR5A2_variant 1, concentration-response (chimeric OR5A2_variant 1) | activation of chimeric OR5A2_variant 1, concentration-response (chimeric OR5A2_variant 1; listed as ethyl-fenchol) | activation of chimeric OR5A2_variant 1, concentration-response (chimeric OR5A2_variant 1; listed as beta-ionone)
CCC1(O)C2(C)CCC(C2)C1(C)C (stereo not drawn) [2 ethyl-fenchol] | stimulated neither | able to activate OR11A1 only | able to activate OR11A1 only | stimulated neither | not activated | not able to activate | –
CC(=O)/C=C/C1=C(C)CCCC1(C)C [Beta-ionone] | stimulated neither | able to activate OR5A1 only | able to activate OR5A1 only | stimulated neither | not able to activate | – | not activated
